Columns and labels:
SETVI (Foxtail, Green) [1] = test: Preemergence herbicidal evaluation; format: in vivo, Setaria viridis; conditions: rated 4-5 weeks after treatment
Method in brief: (§1)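 Each species is sown separately in potting soil over roughly an inch of soil before any emergence. The soil surface then receives an aqueous acetone spray delivering about 0.0156 to 0.500 kg/ha of compound. After four to five weeks, injury is scored from 0 to 9 relative to a control.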

[2] = test system: SAGPY (Arrowhead (Pygmaea)); test: Postemergence weed control under flooded paddy conditions; format: in vivo, Sagittaria pygmaea; conditions: postemergence weeds, 3-4 weeks after treatment
Method in brief: (§2)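 Herbicidal effect is judged by eye on a 0–9 scale versus control, 3–4 weeks after dosing. Dosing is into flood water kept 1.5–3 cm over the soil, at about 0.0313–0.500 kg/ha in aqueous/acetone 50/50 v/v, on 3–5 cm weeds and 1.5–2.5-leaf rice seedlings.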

[3] = test system: ECHORC (Watergrass (Calif.)); test: Preemergence weed control under flooded paddy conditions; format: in vivo, Echinochloa oryzoides; conditions: rated 3-4 weeks after treatment
Method in brief: (§3)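 Ratings on a 0-9 visual scale cover stand, vigor, malformation, size, chlorosis and overall appearance relative to a control, taken three to four weeks post-treatment. Application was into flood water over freshly sown silt loam at roughly 0.0313 to 0.500 kg/ha.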

ZEAMX (Corn, Field) [4] = test: Postemergence herbicidal evaluation; format: in vivo, Zea mays; conditions: postemergence
Method in brief: (§4)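 Scores (0–9) reflect plant stand, vigor, malformation, size, chlorosis and general appearance relative to control, read 4 to 5 weeks after treatment and averaged where tests were repeated. Application: about 0.0156–0.500 kg/ha sprayed at 40 psi onto two-week seedlings.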

ZEAMX (Corn, Field) [5] = test: Preemergence herbicidal evaluation; format: in vivo, Zea mays; conditions: rated 4-5 weeks after treatment
Method in brief: as §1

[6] = test system: TRZAWR (Wheat, Winter, cv Riband); test: Preemergence herbicidal evaluation; format: in vivo, Triticum aestivum; conditions: rated 4-5 weeks after treatment
Method in brief: as §1

[7] = test system: ECHORC (Watergrass (Calif.)); test: Postemergence weed control under flooded paddy conditions; format: in vivo, Echinochloa oryzoides; conditions: postemergence weeds, 3-4 weeks after treatment
Method in brief: as §2

SETVI (Foxtail, Green) [8] = test: Postemergence herbicidal evaluation; format: in vivo, Setaria viridis; conditions: postemergence
Method in brief: as §4

ECHCG (Barnyardgrass) = test: Preemergence herbicidal evaluation; format: in vivo, Echinochloa crus-galli; conditions: rated 4-5 weeks after treatment
Method in brief: as §1

CYPIR (Rice Flatsedge) [9] = test: Preemergence weed control under flooded paddy conditions; format: in vivo, Cyperus iria; conditions: rated 3-4 weeks after treatment
Method in brief: as §3

ORYSAT (Rice, Tebonnet) = test: Postemergence herbicidal evaluation; format: in vivo, Oryza sativa, (L.) Tebonnet; conditions: postemergence
Method in brief: as §4

CYPIR (Rice Flatsedge) [10] = test: Postemergence weed control under flooded paddy conditions; format: in vivo, Cyperus iria; conditions: postemergence weeds, 3-4 weeks after treatment
Method in brief: as §2

CYPSE (Flatsedge) [11] = test: Preemergence weed control under flooded paddy conditions; format: in vivo, Cyperus serotinus; conditions: rated 3-4 weeks after treatment
Method in brief: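 Values are visual 0-9 scores against a control for a preemergence application into paddy flood water at about 0.0313 to 0.500 kg/ha. Greenhouse duration was three to four weeks.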

CYPSE (Flatsedge) [12] = test: Postemergence weed control under flooded paddy conditions; format: in vivo, Cyperus serotinus; conditions: postemergence weeds, 3-4 weeks after treatment
Method in brief: as §2

CN1C(=O)C(F)SC1=Nc1cc(N2C(=O)C3=C(CCCC3)C2=O)c(F)cc1Cl (stereo not shown) [Compound 5, N-{4-chloro-2-fluoro-5-[(5-fluoro-3-methyl-4-oxo-2-thiazolidinylidene)amino]phenyl}-1-cyclohexene-1,2-dicarboximide]
6.0: SETVI preemergence herbicidal rating (SETVI (Foxtail, Green) [1]; rate 0.2500 kg/ha) | ECHCG preemergence herbicidal rating (ECHCG (Barnyardgrass); rate 0.2500 kg/ha)
7.0: ECHCG preemergence herbicidal rating (ECHCG (Barnyardgrass); rate 0.5000 kg/ha)
0.5: Herbicidal rating ECHORC ([7]; rate 0.1250 kg/ha) | Herbicidal rating CYPSE (CYPSE (Flatsedge) [12]; rate 0.5000 kg/ha)
1.0: Herbicidal rating ECHORC ([3]; 0.1250 kg/ha) | ZEAMX preemergence herbicidal rating (ZEAMX (Corn, Field) [5]; rate 0.1250 kg/ha) | TRZAWR preemergence herbicidal rating ([6]; rate 0.2500 kg/ha) | Herbicidal rating ECHORC ([7]; rate 0.2500 kg/ha) | Herbicidal rating CYPSE (CYPSE (Flatsedge) [11]; 0.5000 kg/ha)
3.5: ZEAMX herbicidal rating (ZEAMX (Corn, Field) [4]; rate 0.0157 kg/ha) | ZEAMX herbicidal rating (ZEAMX (Corn, Field) [4]; rate 0.0313 kg/ha) | ZEAMX herbicidal rating (ZEAMX (Corn, Field) [4]; rate 0.1250 kg/ha) | ZEAMX herbicidal rating (ZEAMX (Corn, Field) [4]; rate 0.5000 kg/ha)
0.0: SETVI preemergence herbicidal rating (SETVI (Foxtail, Green) [1]; rate 0.0625 kg/ha) | Herbicidal rating SAGPY ([2]; rate 0.1250 kg/ha) | Herbicidal rating SAGPY ([2]; rate 0.2500 kg/ha) | Herbicidal rating SAGPY ([2]; rate 0.5000 kg/ha) | ZEAMX preemergence herbicidal rating (ZEAMX (Corn, Field) [5]; rate 0.0625 kg/ha) | TRZAWR preemergence herbicidal rating ([6]; rate 0.0625 kg/ha) | TRZAWR preemergence herbicidal rating ([6]; rate 0.1250 kg/ha) | SETVI herbicidal rating (SETVI (Foxtail, Green) [8]; rate 0.0157 kg/ha) | SETVI herbicidal rating (SETVI (Foxtail, Green) [8]; rate 0.0313 kg/ha) | ECHCG preemergence herbicidal rating (ECHCG (Barnyardgrass); rate 0.0625 kg/ha) | Herbicidal rating CYPIR (CYPIR (Rice Flatsedge) [9]; 0.1250 kg/ha) | Herbicidal rating CYPIR (CYPIR (Rice Flatsedge) [9]; 0.2500 kg/ha) | Herbicidal rating CYPIR (CYPIR (Rice Flatsedge) [9]; 0.5000 kg/ha) | Herbicidal rating CYPIR (CYPIR (Rice Flatsedge) [10]; rate 0.1250 kg/ha) | Herbicidal rating CYPIR (CYPIR (Rice Flatsedge) [10]; rate 0.2500 kg/ha) | Herbicidal rating CYPIR (CYPIR (Rice Flatsedge) [10]; rate 0.5000 kg/ha) | Herbicidal rating CYPSE (CYPSE (Flatsedge) [11]; 0.1250 kg/ha) | Herbicidal rating CYPSE (CYPSE (Flatsedge) [11]; 0.2500 kg/ha) | Herbicidal rating CYPSE (CYPSE (Flatsedge) [12]; rate 0.1250 kg/ha) | Herbicidal rating CYPSE (CYPSE (Flatsedge) [12]; rate 0.2500 kg/ha)
2.5: ORYSAT herbicidal rating (ORYSAT (Rice, Tebonnet); rate 0.0625 kg/ha) | ORYSAT herbicidal rating (ORYSAT (Rice, Tebonnet); rate 0.1250 kg/ha) | ORYSAT herbicidal rating (ORYSAT (Rice, Tebonnet); rate 0.2500 kg/ha) | ORYSAT herbicidal rating (ORYSAT (Rice, Tebonnet); rate 0.5000 kg/ha)
1.5: ORYSAT herbicidal rating (ORYSAT (Rice, Tebonnet); rate 0.0157 kg/ha) | ORYSAT herbicidal rating (ORYSAT (Rice, Tebonnet); rate 0.0313 kg/ha)
2.0: SETVI preemergence herbicidal rating (SETVI (Foxtail, Green) [1]; rate 0.1250 kg/ha) | Herbicidal rating ECHORC ([3]; 0.2500 kg/ha) | ZEAMX preemergence herbicidal rating (ZEAMX (Corn, Field) [5]; rate 0.2500 kg/ha) | ZEAMX preemergence herbicidal rating (ZEAMX (Corn, Field) [5]; rate 0.5000 kg/ha) | TRZAWR preemergence herbicidal rating ([6]; rate 0.5000 kg/ha) | Herbicidal rating ECHORC ([7]; rate 0.5000 kg/ha) | SETVI herbicidal rating (SETVI (Foxtail, Green) [8]; rate 0.0625 kg/ha) | ECHCG preemergence herbicidal rating (ECHCG (Barnyardgrass); rate 0.1250 kg/ha)
8.0: SETVI herbicidal rating (SETVI (Foxtail, Green) [8]; rate 0.2500 kg/ha)
4.0: Herbicidal rating ECHORC ([3]; 0.5000 kg/ha) | ZEAMX herbicidal rating (ZEAMX (Corn, Field) [4]; rate 0.0625 kg/ha) | ZEAMX herbicidal rating (ZEAMX (Corn, Field) [4]; rate 0.2500 kg/ha) | SETVI herbicidal rating (SETVI (Foxtail, Green) [8]; rate 0.1250 kg/ha) | SETVI herbicidal rating (SETVI (Foxtail, Green) [8]; rate 0.5000 kg/ha)
9.0: SETVI preemergence herbicidal rating (SETVI (Foxtail, Green) [1]; rate 0.5000 kg/ha)

Reference: patent publication US20020137929A1, “1 - (3-heterocyclylphenyl) isothiourea, -isourea, -guanidine and -amidine herbicidal agents” (Intellectual Property Department, BASF Aktiengesellschaft, priority 1998, published 2002)
